# Laboratory results reported in ChEMBL document CHEMBL1159307, “Theopederins K and L. Highly potent cytotoxic metabolites from a marine sponge Discodermia species” (J Nat Prod, 2002).
# pIC50: −log10 of the molar value.
# Tests used:
# P388 = test: Cytotoxicity against mouse P388 cells; format: functional, cell-based
# A549 = test: Cytotoxicity against human A549 cells; format: functional, cell-based
structure (smiles),measurement,setting,value
C=C1C[C@](OC)([C@H](O)C(=O)N[C@H]2OCO[C@H]3[C@@H]2O[C@H](CC(/C=C/C/C=C/C=C/C(=O)OC)OC)C(C)(C)[C@@H]3OC)O[C@H](C)[C@@H]1C (stereo partly specified) [THEOPEDERIN K METHYL ESTER],pIC50,P388,9.52
same,pIC50,A549,9.10
C=C1C[C@](OC)([C@H](O)C(=O)N[C@H]2OCO[C@H]3[C@@H]2O[C@H](CC(/C=C/C/C=C/C=C/C(=O)O)OC)C(C)(C)[C@@H]3OC)O[C@H](C)[C@@H]1C (stereo partly specified) [THEOPEDERIN K],pIC50,P388,10.00
same,pIC50,A549,8.82
C=C1C[C@](OC)([C@H](O)C(=O)N[C@H]2OCO[C@H]3[C@@H]2O[C@H](CC(O)/C=C/C/C=C/C=C/C(=O)O)C(C)(C)[C@@H]3OC)O[C@H](C)[C@@H]1C (stereo partly specified) [THEOPEDERIN L],pIC50,P388,8.14
same,pIC50,A549,8.49
